# pIC50: −log10 of the molar value.
# System: Endogenous Huntingtin Protein
# Test: Endogenous Huntingtin Protein Assay (ELISA-based MSD electrochemiluminescence)
# Assay type: cell-based
# Settings: Table 1
# Outline: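 Huntingtin was captured overnight at 4 °C on plates coated with 1 μg/mL MW1 (polyQ-expanded) or MAB2166 antibody and BSA-blocked. Detection used a rabbit monoclonal and then a SULFO-TAG goat anti-rabbit antibody (0.25 μg/mL, 1 h each, room temperature). Signal was read by electrochemiluminescence.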
row,SMILES,pIC50
1,"CN(c1nc2nnc(-c3ccc(-c4cn[nH]c4)cc3O)cc2s1)[C@@H]1CCNC[C@H]1F [Compound 365, 2-(6-{[(3R,4R)-3-fluoropiperidin-4-yl](methyl)amino}[1,3]thiazolo[4,5-c]pyridazin-3-yl)-5-(1H-pyrazol-4-yl)phenol]",6.30 to 7.00
2,"Oc1cc(-c2c[nH]nc2F)ccc1-c1cc2sc(N3CC4(CNC4)C3)nc2nn1 [Compound 368, 2-[6-(2,6-diazaspiro[3.3]heptan-2-yl)[1,3]thiazolo[4,5-c]pyridazin-3-yl]-5-(3-fluoro-1H-pyrazol-4-yl)phenol]",6.30 to 7.00
3,"CN(c1nc2nnc(-c3ccc(-c4cn[nH]c4)cc3O)cc2s1)[C@H]1CCN[C@H](CO)C1 [Compound 371, 2-(6-{[(2S,4S)-2-(hydroxymethyl)piperidin-4-yl](methyl)amino}[1,3]thiazolo[4,5-c]pyridazin-3-yl)-5-(1H-pyrazol-4-yl)phenol]",≥ 7.00
4,"CN1CC[C@H](N(C)c2nc3nnc(-c4ccc(-c5cn[nH]c5)cc4O)cc3s2)C[C@H]1CO [Compound 372, 2-(6-{[(2S,4S)-2-(hydroxymethyl)-1-methylpiperidin-4-yl](methyl)amino}[1,3]thiazolo[4,5-c]pyridazin-3-yl)-5-(1H-pyrazol-4-yl)phenol]",≥ 7.00
5,"CC1CC(N(C)c2nc3cnc(-c4cc(C#N)c5nn(C)cc5c4)cc3s2)CCN1C (stereo not drawn) [Compound 377, 5-{2-[(1,2-dimethylpiperidin-4-yl)(methyl)amino][1,3]thiazolo[4,5-c]pyridin-6-yl}-2-methyl-2H-indazole-7-carbonitrile]",6.30 to 7.00
6,"CC1CC(N(C)c2nc3cnc(-c4cc(F)c5nn(C)cc5c4)cc3s2)CCN1C (stereo not drawn) [Compound 378, N-(1,2-dimethylpiperidin-4-yl)-6-(7-fluoro-2-methyl-2H-indazol-5-yl)-N-methyl[1,3]thiazolo[4,5-c]pyridin-2-amine]",6.30 to 7.00
7,"Cc1cn2cc(-c3cc4sc(N(C)C5CCN(C)C(C)C5)nc4cn3)cc(C#N)c2n1 (stereo not drawn) [Compound 379, 6-{2-[(1,2-dimethylpiperidin-4-yl)(methyl)amino][1,3]thiazolo[4,5-c]pyridin-6-yl}-2-methylimidazo[1,2-a]pyridine-8-carbonitrile]",≥ 7.00
8,"Cc1cn2cc(-c3cc4sc(N(C)C5CCN(C)C(C)C5)nc4cn3)cc(F)c2n1 (stereo not drawn) [Compound 380, N-(1,2-dimethylpiperidin-4-yl)-6-(8-fluoro-2-methylimidazo[1,2-a]pyridin-6-yl)-N-methyl[1,3]thiazolo[4,5-c]pyridin-2-amine]",6.30 to 7.00
9,"CN(c1nc2nnc(-c3ccc(-c4cn[nH]c4)cc3O)cc2s1)C1CCN(C2CC2)CC1 [Compound 383, 2-{6-[(1-cyclopropylpiperidin-4-yl)(methyl)amino][1,3]thiazolo[4,5-c]pyridazin-3-yl}-5-(1H-pyrazol-4-yl)phenol]",≥ 7.00
10,"CN(c1nc2nnc(-c3ccc(-c4cn[nH]c4)cc3O)cc2s1)C1CCN(CCF)CC1 [Compound 384, 2-(6-{[1-(2-fluoroethyl)piperidin-4-yl](methyl)amino}[1,3]thiazolo[4,5-c]pyridazin-3-yl)-5-(1H-pyrazol-4-yl)phenol]",≥ 7.00
11,"CN1CC2(C1)CN(c1nc3nnc(-c4ccc(-c5c[nH]nc5F)cc4O)cc3s1)C2 [Compound 385, 5-(3-fluoro-1H-pyrazol-4-yl)-2-[6-(6-methyl-2,6-diazaspiro[3.3]heptan-2-yl)[1,3]thiazolo[4,5-c]pyridazin-3-yl]phenol]",≥ 7.00
12,"CN(c1nc2nnc(-c3ccc(-c4c[nH]nc4F)cc3O)cc2s1)C1CCNC1 (stereo not drawn) [Compound 387, 5-(3-fluoro-1H-pyrazol-4-yl)-2-[6-[methyl(pyrrolidin-3-yl)amino][1,3]thiazolo[4,5-c]pyridazin-3-yl}phenol]",≥ 7.00
13,"CN1CCC2(CC1)CN(c1nc3nnc(-c4ccc(-c5c[nH]nc5F)cc4O)cc3s1)C2 [Compound 392, 5-(3-fluoro-1H-pyrazol-4-yl)-2-[6-(7-methyl-2,7-diazaspiro[3.5]nonan-2-yl)[1,3]thiazolo[4,5-c]pyridazin-3-yl]phenol]",5.52 to 6.00
14,"CCCN1CCC(N(C)c2nc3nnc(-c4ccc(-c5cn[nH]c5)cc4O)cc3s2)CC1 [Compound 393, 2-{6-[methyl(1-propylpiperidin-4-yl)amino][1,3]thiazolo[4,5-c]pyridazin-3-yl]-5-(1H-pyrazol-4-yl)phenol]",5.52 to 6.00
15,"C[C@H]1C[C@@H](N(C)c2nc3nnc(-c4ccc(-c5cn[nH]c5)cc4O)cc3s2)CCN1 [Compound 394, 2-(6-{methyl[(2S,4S)-2-methylpiperidin-4-yl]amino}[1,3]thiazolo[4,5-c]pyridazin-3-yl)-5-(1H-pyrazol-4-yl)phenol]",≥ 7.00

# The next lines start with the values.
row,pIC50,SMILES
1,≥ 7.00,"Oc1cc(-c2cn[nH]c2)ccc1-c1cc2sc(N3CC[C@H]4CCNC[C@H]43)nc2nn1 [Compound 362, 2-{6-[(3aR,7aS)-octahydro-1H-pyrrolo[2,3-c]pyridin-1-yl][1,3]thiazolo[4,5-c]pyridazin-3-yl}-5-(1H-pyrazol-4-yl)phenol]"
2,≥ 7.00,"Oc1cc(-c2cn[nH]c2)ccc1-c1cc2sc(N3CCC34CCCNC4)nc2nn1 (stereo not drawn) [Compound 363, 2-[6-(1,6-diazaspiro[3.5]nonan-1-yl)[1,3]thiazolo[4,5-c]pyridazin-3-yl]-5-(1H-pyrazol-4-yl)phenol]"
3,5.52 to 6.00,"CN(C)[C@H]1C[C@@H](N(C)c2nc3nnc(-c4ccc(-c5cn[nH]c5)cc4O)cc3s2)C1 [Compound 364, 2-(6-{[(1s,3s)-3-(dimethylamino)cyclobutyl](methyl)amino}[1,3]thiazolo[4,5-c]pyridazin-3-yl)-5-(1H-pyrazol-4-yl)phenol]"
4,≥ 7.00,"CN1CCC(Nc2nc3nnc(-c4ccc(-c5cn[nH]c5)cc4O)cc3s2)CC1 [Compound 366, 2-{6-[(1-methylpiperidin-4-yl)amino][1,3]thiazolo[4,5-c]pyridazin-3-yl}-5-(1H-pyrazol-4-yl)phenol]"
5,6.30 to 7.00,"Oc1cc(-c2cn[nH]c2)ccc1-c1cc2sc(NC3CCNC3)nc2nn1 (stereo not drawn) [Compound 367, 5-(1H-pyrazol-4-yl)-2-{6-[(pyrrolidin-3-yl)amino][1,3]thiazolo[4,5-c]pyridazin-3-yl}phenol]"
6,6.30 to 7.00,"CN1CC[C@@H]2CCN(c3nc4nnc(-c5ccc(-c6cn[nH]c6)cc5O)cc4s3)[C@@H]2C1 [Compound 369, 2-{6-[(3aR,7aS)-6-methyloctahydro-1H-pyrrolo[2,3-c]pyridin-1-yl][1,3]thiazolo[4,5-c]pyridazin-3-yl}-5-(1H-pyrazol-4-yl)phenol]"
7,≥ 7.00,"CN1CCCC2(CCN2c2nc3nnc(-c4ccc(-c5cn[nH]c5)cc4O)cc3s2)C1 (stereo not drawn) [Compound 370, 2-[6-(6-methyl-1,6-diazaspiro[3.5]nonan-1-yl)[1,3]thiazolo[4,5-c]pyridazin-3-yl]-5-(1H-pyrazol-4-yl)phenol]"
8,≥ 7.00,"CN1CCC(Nc2nc3nnc(-c4ccc(-c5cn[nH]c5)cc4O)cc3s2)C1 (stereo not drawn) [Compound 373, 2-{6-[(1-methylpyrrolidin-3-yl)amino][1,3]thiazolo[4,5-c]pyridazin-3-yl}-5-(1H-pyrazol-4-yl)phenol]"
9,≥ 7.00,"CN(c1nc2nnc(-c3ccc(-c4cn[nH]c4)cc3O)cc2s1)C1CCNC1 (stereo not drawn) [Compound 374, 2-{6-[methyl(pyrrolidin-3-yl)amino][1,3]thiazolo[4,5-c]pyridazin-3-yl}-5-(1H-pyrazol-4-yl)phenol]"
10,≥ 7.00,"CN1CCC(N(C)c2nc3nnc(-c4ccc(-c5cn[nH]c5)cc4O)cc3s2)C1 (stereo not drawn) [Compound 375, 2-{6-[methyl(1-methylpyrrolidin-3-yl)amino][1,3]thiazolo[4,5-c]pyridazin-3-yl}-5-(1H-pyrazol-4-yl)phenol]"
11,6.30 to 7.00,"CN[C@H]1C[C@H](N(C)c2nc3nnc(-c4ccc(-c5cn[nH]c5)cc4O)cc3s2)C1 [Compound 376, 2-(6-{methyl[(1r,3r)-3-(methylamino)cyclobutyl]amino}[1,3]thiazolo[4,5-c]pyridazin-3-yl)-5-(1H-pyrazol-4-yl)phenol]"
12,6.30 to 7.00,"CN(c1nc2nnc(-c3ccc(-c4cn[nH]c4)cc3O)cc2s1)[C@H]1CNC[C@@H]1F [Compound 381, 2-(6-{[(3S,4S)-4-fluoropyrrolidin-3-yl](methyl)amino}[1,3]thiazolo[4,5-c]pyridazin-3-yl)-5-(1H-pyrazol-4-yl)phenol]"
13,6.30 to 7.00,"CN1C[C@H](F)[C@@H](N(C)c2nc3nnc(-c4ccc(-c5cn[nH]c5)cc4O)cc3s2)C1 [Compound 382, 2-(6-{[(3S,4S)-4-fluoro-1-methylpyrrolidin-3-yl](methyl)amino}[1,3]thiazolo[4,5-c]pyridazin-3-yl)-5-(1H-pyrazol-4-yl)phenol]"
14,≥ 7.00,"Oc1cc(-c2cn[nH]c2)ccc1-c1cc2sc(N3C[C@H]4CCNC[C@H]43)nc2nn1 [Compound 386, 2-{6-[(1S,6R)-3,8-diazabicyclo[4.2.0]octan-8-yl][1,3]thiazolo[4,5-c]pyridazin-3-yl}-5-(1H-pyrazol-4-yl)phenol]"
15,6.30 to 7.00,"CN1CC[C@@H]2CN(c3nc4nnc(-c5ccc(-c6cn[nH]c6)cc5O)cc4s3)[C@@H]2C1 [Compound 388, 2-{6-[(1S,6R)-3-methyl-3,8-diazabicyclo[4.2.0]octan-8-yl][1,3]thiazolo[4,5-c]pyridazin-3-yl}-5-(1H-pyrazol-4-yl)phenol]"
16,≥ 7.00,"Oc1cc(-c2cn[nH]c2)ccc1-c1cc2sc(N3C[C@@H]4CCNC[C@@H]43)nc2nn1 [Compound 389, 2-{6-[(1R,6S)-3,8-diazabicyclo[4.2.0]octan-8-yl][1,3]thiazolo[4,5-c]pyridazin-3-yl}-5-(1H-pyrazol-4-yl)phenol]"
17,≥ 7.00,"CN1CC[C@H]2CN(c3nc4nnc(-c5ccc(-c6cn[nH]c6)cc5O)cc4s3)[C@H]2C1 [Compound 390, 2-{6-[(1R,6S)-3-methyl-3,8-diazabicyclo[4.2.0]octan-8-yl][1,3]thiazolo[4,5-c]pyridazin-3-yl}-5-(1H-pyrazol-4-yl)phenol]"
18,≥ 7.00,"CN1CCC(N(C)c2nc3nnc(-c4ccc(-c5c[nH]nc5F)cc4O)cc3s2)C1 (stereo not drawn) [Compound 391, 5-(3-fluoro-1H-pyrazol-4-yl)-2-{6-[methyl(1-methylpyrrolidin-3-yl)amino][1,3]thiazolo[4,5-c]pyridazin-3-yl]phenol]"

# From patent US12139499B2, “Heteroaryl compounds for treating Huntington's disease” (PTC THERAPEUTICS, INC., priority 2018, dated 2024)
